Experimental data taken from patent US9714236B2, “Compounds and methods for inhibiting JAK” (AstraZeneca AB, priority 2015, dated 2017).

Tests used:
Assay type in all cases: biochemical
[1] = target: recombinant JAK1 (amino acids 866-1154) (Homo sapiens (Human), UniProt P23458); assay: Enzyme inhibition studies, JAK1 (peptide phosphorylation, Caliper LC3000); settings: ATP concentration not given (assayed at ATP Km 55 μM and at 5 mM)
Description: (§1) Enzyme inhibition studies were performed using recombinant JAK1 (amino acids 866-1154, Life Technologies, #PV4774, Carlsbad, Calif.), JAK2 (amino acids 831-1132), or JAK3 (amino acids 781-1124) under buffer conditions of 50 mM HEPES pH 7.3, 1 mM DTT, 0.01% Tween® 20, 50 μg/mL BSA, and 10 mM MgCl2. JAK enzyme was expressed as an N-terminal GST fusion in insect cells and purified by glutathione-affinity and size-exclusion chromatographies. […] Phosphorylated and unphosphorylated peptides were separated and quantified by a Caliper LC3000 system (Caliper Life Sciences, MA) for calculating percent inhibition.

[2] = target: recombinant JAK2 (amino acids 831-1132) (Homo sapiens (Human), UniProt O60674); assay: Enzyme inhibition studies, JAK2 (peptide phosphorylation, Caliper LC3000); settings: ATP concentration of the tabulated values not stated (assayed at ATP Km 15 μM and at 5 mM)
Chain of recombinant JAK2 (amino acids 831-1132) (O60674 831-1132): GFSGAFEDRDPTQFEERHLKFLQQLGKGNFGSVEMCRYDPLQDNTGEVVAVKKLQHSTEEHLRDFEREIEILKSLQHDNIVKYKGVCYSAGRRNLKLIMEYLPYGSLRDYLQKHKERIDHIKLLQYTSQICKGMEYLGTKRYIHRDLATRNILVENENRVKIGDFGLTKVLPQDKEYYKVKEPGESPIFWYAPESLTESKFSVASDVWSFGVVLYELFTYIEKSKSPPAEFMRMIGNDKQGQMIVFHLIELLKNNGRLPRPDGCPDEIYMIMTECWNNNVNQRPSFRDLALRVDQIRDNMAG
Description: as §1

[3] = target: recombinant JAK3 (amino acids 781-1124) (Homo sapiens (Human), UniProt P52333); assay: Enzyme inhibition studies, JAK3 (peptide phosphorylation, Caliper LC3000); settings: ATP concentration of the tabulated values not stated (assayed at ATP Km 3 μM and at 5 mM)
Chain of recombinant JAK3 (amino acids 781-1124) (P52333 781-1124): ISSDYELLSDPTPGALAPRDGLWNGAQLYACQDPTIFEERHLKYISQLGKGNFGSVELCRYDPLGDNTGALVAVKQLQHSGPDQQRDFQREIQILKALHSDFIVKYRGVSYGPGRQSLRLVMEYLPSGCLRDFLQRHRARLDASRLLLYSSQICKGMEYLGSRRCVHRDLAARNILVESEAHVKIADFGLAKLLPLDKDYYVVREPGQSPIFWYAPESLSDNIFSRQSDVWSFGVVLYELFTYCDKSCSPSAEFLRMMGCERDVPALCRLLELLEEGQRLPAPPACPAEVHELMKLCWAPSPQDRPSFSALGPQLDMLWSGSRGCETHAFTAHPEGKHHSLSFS
Description: as §1

Chain of recombinant JAK1 (amino acids 866-1154) (P23458 866-1154): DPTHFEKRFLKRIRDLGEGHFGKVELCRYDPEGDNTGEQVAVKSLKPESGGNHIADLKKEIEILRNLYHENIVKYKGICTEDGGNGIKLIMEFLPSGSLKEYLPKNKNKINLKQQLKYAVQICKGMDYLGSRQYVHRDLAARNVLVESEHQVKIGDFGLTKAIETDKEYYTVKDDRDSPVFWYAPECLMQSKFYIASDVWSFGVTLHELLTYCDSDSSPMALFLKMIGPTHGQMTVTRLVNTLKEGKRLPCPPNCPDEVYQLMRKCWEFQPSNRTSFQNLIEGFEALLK

COc1nn(C)cc1Nc1nccc(-c2c[nH]c3c(NC(=O)[C@@H](C)N4CCN(C)C[C@@H]4C)cccc23)n1 [Example 1, (2R)-2-[(2S)-2,4-dimethylpiperazin-1-yl]-N-(3-{2-[(3-methoxy-1-methyl-1H-pyrazol-4-yl)amino]pyrimidin-4-yl}-1H-indol-7-yl)propanamide]
IC50 [1]: 0.847 µM

COc1nn(C)cc1Nc1ncc(F)c(-c2c[nH]c3c(NC(=O)[C@@H](C)N4CCN(C)[C@H](C)C4)cccc23)n1 [Example 2, (2R)-2-[(3R)-3,4-dimethylpiperazin-1-yl]-N-(3-{5-fluoro-2-[(3-methoxy-1-methyl-1H-pyrazol-4-yl)amino]pyrimidin-4-yl}-1H-indol-7-yl)propanamide]
IC50 [1]: 0.085 µM | IC50 [2]: 12.8 µM | IC50 [3]: > 30 µM

COCCN1CCN([C@H](C)C(=O)Nc2cccc3c(-c4nc(Nc5cn(C)nc5OC)ncc4F)c[nH]c23)CC1 [Example 3, (2R)-N-(3-{5-fluoro-2-[(3-methoxy-1-methyl-1H-pyrazol-4-yl)amino]pyrimidin-4-yl}-1H-indol-7-yl)-2-[4-(2-methoxyethyl)piperazin-1-yl]propanamide]
IC50 [1]: 0.191 µM | IC50 [2]: 26.8 µM | IC50 [3]: > 30 µM

CCN1CCN([C@H](C)C(=O)Nc2cccc3c(-c4nc(Nc5cn(C)nc5OC)ncc4F)c[nH]c23)CC1 [Example 4, (2R)-2-(4-ethylpiperazin-1-yl)-N-(3-{5-fluoro-2-[(3-methoxy-1-methyl-1H-pyrazol-4-yl)amino]pyrimidin-4-yl}-1H-indol-7-yl)propanamide]
IC50 [1]: 0.043 µM | IC50 [2]: 6.57 µM | IC50 [3]: > 30 µM

COc1nn(C)cc1Nc1ncc(F)c(-c2c[nH]c3c(NC(=O)[C@@H](C)N4CCN(C)[C@@H](C)C4)cccc23)n1 [Example 5, (2R)-2-[(3S)-3,4-dimethylpiperazin-1-yl]-N-(3-{5-fluoro-2-[(3-methoxy-1-methyl-1H-pyrazol-4-yl)amino]pyrimidin-4-yl}-1H-indol-7-yl)propanamide]
IC50 [1]: 0.024 µM | IC50 [2]: 10.4 µM | IC50 [3]: > 30 µM

COc1nn(C)cc1Nc1ncc(F)c(-c2c[nH]c3c(NC(=O)[C@@H](C)N4CCN(C)C[C@H]4C)cccc23)n1 [Example 6]
IC50 [1]: 0.03 µM | IC50 [2]: 9.62 µM | IC50 [3]: > 30 µM

COc1nn(C)cc1Nc1ncc(F)c(-c2c[nH]c3c(NC(=O)[C@@H](C)N4CCN(C)C[C@@H]4C)cccc23)n1 [Example 7a, (2R)-2-[(2S)-2,4-dimethylpiperazin-1-yl]-N-(3-{5-fluoro-2-[(3-methoxy-1-methyl-1H-pyrazol-4-yl)amino]pyrimidin-4-yl}-1H-indol-7-yl)propanamide]
IC50 [1]: 0.359 µM | IC50 [2]: > 30 µM | IC50 [3]: > 30 µM

COc1nn(C)cc1Nc1ncc(F)c(-c2c[nH]c3c(NC(=O)[C@H](C)N4CCN(C)C[C@@H]4C)cccc23)n1 [Example 7b, (2S)-2-[(2S)-2,4-dimethylpiperazin-1-yl]-N-(3-{5-fluoro-2-[(3-methoxy-1-methyl-1H-pyrazol-4-yl)amino]pyrimidin-4-yl}-1H-indol-7-yl)propanamide]
IC50 [1]: 3.6 µM | IC50 [2]: > 30 µM | IC50 [3]: > 30 µM

CCOc1nn(C)cc1Nc1ncc(F)c(-c2c[nH]c3c(NC(=O)[C@@H](C)N4CCN(CC)CC4)cccc23)n1 [Example 8, (2R)-N-(3-{2-[(3-ethoxy-1-methyl-1H-pyrazol-4-yl)amino]-5-fluoropyrimidin-4-yl}-1H-indol-7-yl)-2-(4-ethylpiperazin-1-yl)propanamide]
IC50 [1]: 0.11 µM | IC50 [2]: 23.6 µM | IC50 [3]: > 30 µM

CCOc1nn(C)cc1Nc1ncc(F)c(-c2c[nH]c3c(NC(=O)[C@@H](C)N4CCN(CCOC)CC4)cccc23)n1 [Example 9, (2R)-N-(3-{2-[(3-ethoxy-1-methyl-1H-pyrazol-4-yl)amino]-5-fluoropyrimidin-4-yl}-1H-indol-7-yl)-2-[4-(2-methoxyethyl)piperazin-1-yl]propanamide]
IC50 [1]: 0.426 µM | IC50 [2]: > 30 µM | IC50 [3]: > 30 µM

CCOc1nn(C)cc1Nc1ncc(F)c(-c2c[nH]c3c(NC(=O)[C@@H](C)N4CCN(C)C[C@@H]4C)cccc23)n1 [Example 10a, (2R)-2-[(2S)-2,4-dimethylpiperazin-1-yl]-N-(3-{2-[(3-ethoxy-1-methyl-1H-pyrazol-4-yl)amino]-5-fluoropyrimidin-4-yl}-1H-indol-7-yl)propanamide]
IC50 [1]: 0.846 µM

CCOc1nn(C)cc1Nc1ncc(F)c(-c2c[nH]c3c(NC(=O)[C@H](C)N4CCN(C)C[C@@H]4C)cccc23)n1 [Example 10b, (2S)-2-[(2S)-2,4-dimethylpiperazin-1-yl]-N-(3-{2-[(3-ethoxy-1-methyl-1H-pyrazol-4-yl)amino]-5-fluoropyrimidin-4-yl}-1H-indol-7-yl)propanamide]
IC50 [1]: 7.6 µM

CCOc1nn(C)cc1Nc1ncc(F)c(-c2c[nH]c3c(NC(=O)[C@@H](C)N4CCN(C)[C@@H](C)C4)cccc23)n1 [Example 11a, (2R)-2-[(3S)-3,4-dimethylpiperazin-1-yl]-N-(3-{2-[(3-ethoxy-1-methyl-1H-pyrazol-4-yl)amino]-5-fluoropyrimidin-4-yl}-1H-indol-7-yl)propanamide]
IC50 [1]: 0.04 µM | IC50 [2]: > 30 µM | IC50 [3]: > 30 µM

CCOc1nn(C)cc1Nc1ncc(F)c(-c2c[nH]c3c(NC(=O)[C@H](C)N4CCN(C)[C@@H](C)C4)cccc23)n1 [Example 11b, (2S)-2-[(3S)-3,4-dimethylpiperazin-1-yl]-N-(3-{2-[(3-ethoxy-1-methyl-1H-pyrazol-4-yl)amino]-5-fluoropyrimidin-4-yl}-1H-indol-7-yl)propanamide]
IC50 [1]: 1.85 µM | IC50 [2]: > 30 µM | IC50 [3]: > 30 µM

CCOc1nn(C)cc1Nc1ncc(F)c(-c2c[nH]c3c(NC(=O)[C@@H](C)N4CCN(C)C[C@H]4C)cccc23)n1 [Example 12, (2R)-2-[(2R)-2,4-dimethylpiperazin-1-yl]-N-(3-{2-[(3-ethoxy-1-methyl-1H-pyrazol-4-yl)amino]-5-fluoropyrimidin-4-yl}-1H-indol-7-yl)propanamide]
IC50 [1]: 0.068 µM

CCOc1nn(C)cc1Nc1ncc(F)c(-c2c[nH]c3c(NC(=O)[C@@H](C)N4CCN(C)[C@H](C)C4)cccc23)n1 [Example 13, (2R)-2-[(3R)-3,4-dimethylpiperazin-1-yl]-N-(3-{2-[(3-ethoxy-1-methyl-1H-pyrazol-4-yl)amino]-5-fluoropyrimidin-4-yl}-1H-indol-7-yl)propanamide]
IC50 [1]: 0.166 µM | IC50 [2]: > 30 µM | IC50 [3]: > 30 µM

COc1nn(C)cc1Nc1ncc(C)c(-c2c[nH]c3c(NC(=O)[C@@H](C)N4CCN(C)[C@@H](C)C4)cccc23)n1 [Example 14, (2R)-2-[(3S)-3,4-dimethylpiperazin-1-yl]-N-(3-{2-[(3-methoxy-1-methyl-1H-pyrazol-4-yl)amino]-5-methylpyrimidin-4-yl}-1H-indol-7-yl)propanamide]
IC50 [1]: 0.009 µM | IC50 [2]: 6.39 µM | IC50 [3]: > 30 µM

COc1nn(C)cc1Nc1ncc(C)c(-c2c[nH]c3c(NC(=O)[C@@H](C)N4CCN(CCO)CC4)cccc23)n1 [Example 15, (2R)-2-[4-(2-hydroxyethyl)piperazin-1-yl]-N-(3-{2-[(3-methoxy-1-methyl-1H-pyrazol-4-yl)amino]-5-methylpyrimidin-4-yl}-1H-indol-7-yl)propanamide]
IC50 [1]: 0.007 µM | IC50 [2]: 2.53 µM | IC50 [3]: > 30 µM

CCN1CCN([C@H](C)C(=O)Nc2cccc3c(-c4nc(Nc5cn(C)nc5OC)ncc4C)c[nH]c23)CC1 [Example 16, (2R)-2-(4-ethylpiperazin-1-yl)-N-(3-{2-[(3-methoxy-1-methyl-1H-pyrazol-4-yl)amino]-5-methylpyrimidin-4-yl}-1H-indol-7-yl)propanamide]
IC50 [1]: 0.019 µM | IC50 [2]: 6.24 µM | IC50 [3]: > 30 µM

COCCN1CCN([C@H](C)C(=O)Nc2cccc3c(-c4nc(Nc5cn(C)nc5OC)ncc4C)c[nH]c23)CC1 [Example 17, (2R)-2-[4-(2-methoxyethyl)piperazin-1-yl]-N-(3-{2-[(3-methoxy-1-methyl-1H-pyrazol-4-yl)amino]-5-methylpyrimidin-4-yl}-1H-indol-7-yl)propanamide]
IC50 [1]: 0.107 µM | IC50 [2]: 18.1 µM | IC50 [3]: > 30 µM

COc1nn(C)cc1Nc1nccc(-c2c[nH]c3c(NC(=O)[C@@H](C)N4CCN(C)C[C@H]4C)cccc23)n1 [Example 29, (2R)-2-[(2R)-2,4-dimethylpiperazin-1-yl]-N-(3-{2-[(3-methoxy-1-methyl-1H-pyrazol-4-yl)amino]pyrimidin-4-yl}-1H-indol-7-yl)propanamide]
IC50 [1]: 0.097 µM

CC[C@H](C(=O)Nc1cccc2c(-c3nc(Nc4cn(C)nc4OC)ncc3F)c[nH]c12)N1CCN(C)CC1 [Example 51, (2R)-N-(3-{5-fluoro-2-[(3-methoxy-1-methyl-1H-pyrazol-4-yl)amino]pyrimidin-4-yl}-1H-indol-7-yl)-2-(4-methylpiperazin-1-yl)butanamide]
IC50 [1]: < 0.003 µM

CC[C@@H](C(=O)Nc1cccc2c(-c3nc(Nc4cn(C)nc4OC)ncc3F)c[nH]c12)N1CCN(C)CC1 [Example 52, (2S)-N-(3-{5-fluoro-2-[(3-methoxy-1-methyl-1H-pyrazol-4-yl)amino]pyrimidin-4-yl}-1H-indol-7-yl)-2-(4-methylpiperazin-1-yl)butanamide]
IC50 [1]: 0.296 µM
